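How tested: cells in 96-well plates exposed to compound for 48 hours at five concentrations. Here, GI50 denotes the concentration required for 50% inhibition of growth. TGI denotes the concentration required for complete inhibition of growth.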
Tests used:
Assay in all cases: NCI tumour cell line growth inhibition, 48 h
PC-3 prostate = tested on: PC-3 prostate
OVCAR-5 ovarian = tested on: OVCAR-5 ovarian
LOX IMVI melanoma = tested on: LOX IMVI melanoma
ACHN renal = tested on: ACHN renal
MDA-MB-231 breast = tested on: MDA-MB-231 breast
SR leukemia = tested on: SR leukemia
NCI-H23 lung = tested on: NCI-H23 lung
NCI-H522 lung = tested on: NCI-H522 lung
IGROV1 ovarian = tested on: IGROV1 ovarian
HOP-62 NSCLC = tested on: HOP-62 NSCLC

Row | SMILES | TGI (PC-3 prostate) | TGI (OVCAR-5 ovarian) | TGI (LOX IMVI melanoma) | TGI (ACHN renal) | TGI (MDA-MB-231 breast) | TGI (SR leukemia) | TGI (NCI-H23 lung) | TGI (NCI-H522 lung) | TGI (IGROV1 ovarian) | TGI (HOP-62 NSCLC) | GI50 (PC-3 prostate) | GI50 (OVCAR-5 ovarian) | GI50 (LOX IMVI melanoma) | GI50 (MDA-MB-231 breast) | GI50 (SR leukemia) | GI50 (NCI-H23 lung) | GI50 (NCI-H522 lung) | GI50 (IGROV1 ovarian)
1 | O=C(OCC(Cl)(Cl)Cl)O[C@@H]1CCCC1(c1ccccc1)c1ccccc1 | > 100 µM | > 100 µM | > 100 µM | > 100 µM | > 100 µM | > 100 µM | > 100 µM | > 100 µM | > 100 µM | > 100 µM |  |  |  |  |  |  |  | 
2 | NC(Cc1ccc(S(=O)(=O)O)cc1)C(=O)NC(Cc1ccc(S(=O)(=O)O)cc1)C(=O)O (stereo unspecified) | > 100 µM | > 100 µM | > 100 µM | > 100 µM | > 100 µM |  | > 100 µM | > 100 µM | > 100 µM | > 100 µM |  |  |  |  |  |  |  | 
3 | C[C@@H]1S[C@H](c2c(Cl)cccc2Cl)N2Cc3ccccc3N=C12 | > 100 µM | > 100 µM | > 100 µM | > 100 µM | > 100 µM | > 100 µM | > 100 µM |  | > 100 µM | > 100 µM |  |  |  |  |  |  |  | 
4 | N#C[C@H](c1nc2ccccc2s1)c1nc2ccccc2nc1Cl | > 100 µM | 39 µM |  | 29.8 µM | > 100 µM | > 100 µM | 32.3 µM | > 100 µM | > 100 µM | 77.1 µM |  |  |  |  |  |  |  | 
5 | COc1ccc(C(C2=C(O)COC2=O)c2cc3c(cc2O)OCO3)cc1OC (stereo unspecified) | > 100 µM | > 100 µM | > 100 µM | > 100 µM | > 100 µM | > 100 µM |  |  | > 100 µM | > 100 µM |  |  |  |  |  |  |  | 
6 | C[C@H](C/C=C/C(C)(C)O)[C@H]1CC[C@@]2(C)[C@@H]3CC[C@H]4C(C)(C)[C@@H](O)CC[C@@]45C[C@@]35CC[C@]12C | 65.1 µM | 38.8 µM | 29.4 µM | 18.9 µM | 33.2 µM |  |  | 15.4 µM | 48.9 µM | 33.6 µM |  |  |  |  |  |  |  | 
7 | CCOC(=O)N(c1ccccc1)N(CC)C(=O)/C(C)=N/Nc1ccc([N+](=O)[O-])cc1 |  |  |  | 40.9 µM |  | 69.3 µM | 36.1 µM | 29.3 µM | 33 µM | 30 µM |  |  |  |  |  |  |  | 
8 | O=C(CCc1ccccc1)On1c(-c2ccccc2)nc2ccccc2c1=S | 56.3 µM | 50.5 µM | 83.6 µM | > 100 µM | > 100 µM |  | 28 µM |  | > 100 µM | 31.5 µM |  |  |  |  |  |  |  | 
9 | Cc1nc2c(=S)n(C)ncc2[nH]1 | > 100 µM | > 100 µM | > 100 µM | > 100 µM | > 100 µM |  | > 100 µM | > 100 µM | > 100 µM | > 100 µM |  |  |  |  |  |  |  | 
10 | CC(=O)NC(CC(C)C)C(=O)NC(Cc1ccccc1)C(=S)N1CCCC1 (stereo unspecified) |  | > 100 µM | > 100 µM | > 100 µM |  |  | > 100 µM | > 100 µM | > 100 µM | > 100 µM |  |  |  |  |  |  |  | 
11 | O=C1Nc2ccccc2Nc2ccncc21 |  | > 100 µM | > 100 µM |  |  |  | > 100 µM | > 100 µM | > 100 µM | > 100 µM |  |  |  |  |  |  |  | 
12 | COc1ccc(/C=C/C2=NN(c3cccc(S(=O)(=O)O)c3)C3(C2)SCC(=O)N3c2nc3ccccc3s2)cc1 (stereo unspecified) | > 100 µM | > 100 µM | > 100 µM | > 100 µM | > 100 µM | > 100 µM | > 100 µM | > 100 µM | > 100 µM |  |  |  |  |  |  |  |  | 
13 | Cc1cc(=O)[nH]c(NN2C(Cl)C(=O)C2c2cccc(Cl)c2)n1 (stereo unspecified) |  | > 100 µM | 32.8 µM | > 100 µM |  | 44.3 µM | 58.2 µM |  | 37.1 µM | > 100 µM |  |  |  |  |  |  |  | 
14 | COc1ccc(/C=N/n2cnc3[nH]c(C)c(Cc4ccccc4)c3c2=N)cc1 | > 100 µM | > 100 µM |  | > 100 µM | > 100 µM | > 100 µM | > 100 µM | > 100 µM | > 100 µM | > 100 µM |  |  |  |  |  |  |  | 
15 | Clc1ccc(OCc2nn3c(CCc4nnc5sc(COc6ccc(Cl)cc6)nn45)nnc3s2)cc1 | 53.1 µM | > 100 µM | > 100 µM | 41 µM | 61.8 µM |  | 72.1 µM | 30.1 µM | 55.1 µM | > 100 µM |  |  |  |  |  |  |  | 
16 | O=c1[nH]cnc2c1nnn2CCCCCCCCCCCCn1nnc2c(=O)[nH]cnc21 | > 100 µM | > 100 µM | > 100 µM | > 100 µM |  | > 100 µM | 39.2 µM | 63 µM | > 77.8 µM | 54 µM |  |  |  |  |  |  |  | 
17 | O=C(NC(=S)NC(=O)c1cc(O)c(O)c(O)c1)c1cc(O)c(O)c(O)c1 | 39.8 µM | 78.8 µM | 60.3 µM | 44.9 µM | 74.1 µM | > 100 µM | 55.4 µM | 70.3 µM |  |  |  |  |  |  |  |  |  | 
18 | COc1ccccc1C[C@@H]1OC2(C=CC(=O)C=C2)O[C@H]1Cc1ccccc1OC | 20.6 µM | 16.5 µM | 13.8 µM | 17.7 µM | 38.6 µM | 13.1 µM | 18.9 µM |  | 13.6 µM | 15.4 µM |  |  |  |  |  |  |  | 
19 | COc1cc(C2c3cc4c(cc3OC(NCCO)C2C)OCO4)cc(OC)c1OC (stereo unspecified) | > 100 µM | > 100 µM | > 100 µM | > 91.5 µM | > 100 µM |  | > 100 µM | 1.62 µM | > 100 µM | 9.03 µM |  |  |  |  |  |  |  | 
20 | COc1cccc(-c2cc(=O)c3ccccc3[nH]2)c1 |  | > 100 µM | > 100 µM | > 100 µM |  | > 100 µM | > 100 µM | > 34.2 µM | > 100 µM | > 100 µM |  |  |  |  |  |  |  | 
21 | COc1ccc2c(OCc3nnc4ccc(-c5ccccc5)nn34)ccnc2c1 | > 100 µM | > 100 µM | > 100 µM |  | > 100 µM | > 100 µM | > 100 µM | > 43.8 µM | > 100 µM |  | > 100 µM | > 100 µM | > 100 µM | > 20.3 µM | 5.64 µM | > 100 µM | 20.1 µM | > 100 µM
22 | C[C@H]1S[C@H](c2c(Cl)cccc2Cl)N2Cc3ccccc3N=C12 | 37.7 µM | 37.5 µM | 32.6 µM | 26.5 µM | > 100 µM | > 100 µM | 28.8 µM |  | 26.1 µM | 32.6 µM |  |  |  |  |  |  |  | 
